# Like-named read-outs stand apart in the source and are kept apart here.
# Legend:
# [1] = Storage of iron-free precursor in aqueous solution, then labeling, cell binding and internalization; assay type: physicochemical; conditions: storage at 5 °C in an aqueous solution for 6 months
# Excerpt: Such synthesis modules have been specifically designed to enable the versatile and efficient routine production of various radiopharmaceuticals while adhering to GMP requirements. The concept of disposable cassettes pursued in this approach allows the user to label different radionuclides on the same synthesis device without the risk of cross-contamination. The disposable cassettes include all necessary vessels, reagents, and purification columns. The automated process concludes with a final sterile filtration, including a filter integrity test. Iron removal should therefore take place before the actual labeling process. We wanted to verify whether it is possible to establish a stock of an iron-free PSMA-DFO precursor, stored in an aqueous solution at 4 °C in the refrigerator, and to determine its shelf life. This was done by investigating whether the iron-free precursor can be labeled with zirconium-89 after several months of storage without compromising the yield, cell binding, and internalization.
# [2] = test system: PSMA binding sites (PSMA-positive LNCaP cell lines); set-up: method as in PMID 34370181; conditions: LNCaP cells; cited from earlier work
# [3] = test system: PSMA (prostate-specific membrane antigen) on prostate cancer cells; set-up: method as in PMID 34370181; conditions: cited from earlier work
# LNCaP tumor xenograft = test system: LNCaP tumor xenograft; set-up: method as in PMID 34370181; conditions: LNCaP tumor xenografts, n = 5, cited from earlier work
# [4] = test system: PSMA (prostate-specific membrane antigen) on prostate cancer cells; set-up: method as in PMID 34370181; conditions: cited from earlier work; remark: listed apart in the source
# PSMA-positive lesions = test system: PSMA-positive lesions; set-up: method as in PMID 34326129; conditions: cited from earlier work
# LNCaP tumors = test system: LNCaP tumors; set-up: method as in PMID 34370181; conditions: cited from earlier work
# [5] = set-up: method as in PMID 34370181; conditions: up to 7 days at 37 °C; cited from earlier work
Compound,Kd [2] [nM],Specific internalization as a percentage of the total cellular activity ([3]; 0.5 h) [%],Specific internalization as a percentage of the total cellular activity ([3]; 1 h) [%],Specific internalization as a percentage of the total cellular activity ([3]; 2 h) [%],Specific internalization as a percentage of the total cellular activity ([3]; 3 h) [%],Specific internalization as a percentage of the total cellular activity ([3]; 5 h) [%],Bmax [2] [fmol/10^6 Cells],tumor/blood ratio (LNCaP tumor xenograft; 4 h after i.v. injection),tumor/muscle ratio (LNCaP tumor xenograft; 4 h after i.v. injection),Specific binding as a percentage of the total cellular activity ([4]; 0.5 h) [%],Specific binding as a percentage of the total cellular activity ([4]; 1 h) [%],Specific binding as a percentage of the total cellular activity ([4]; 2 h) [%],Specific binding as a percentage of the total cellular activity ([4]; 3 h) [%],Specific binding as a percentage of the total cellular activity ([4]; 5 h) [%],other results
CC(=O)N(O)CCCCCNC(=O)CCC(=O)N(O)CCCCCNC(=O)CCC(=O)N(O)CCCCCNC(=O)CCC(=O)NCC1CCC(C(=O)NC(Cc2ccc3ccccc3c2)C(=O)NCCCCC(NC(=O)NC(CCC(=O)O)C(=O)O)C(=O)O)CC1 (stereo not shown) [N-sucDFO-PSMA],–,–,–,–,–,–,–,–,–,–,–,–,–,–,"Chemical reactivity, specific binding and internalization after storage [1]: remained unaffected"
COc1nc(F)ccc1C(=O)NCCCCC(NC(=O)NC(CCC(=O)O)C(=O)O)C(=O)O (stereo not shown) [[^18F]F-JK-PSMA 7],5.07 ± 0.45,–,–,–,–,–,–,–,–,–,–,–,–,–,–
COc1nc([18F])ccc1C(=O)NCCCCC(NC(=O)NC(CCC(=O)O)C(=O)O)C(=O)O (stereo not shown) [[^18F]F-JK-PSMA 7],–,4.7 ± 0.4,11.1 ± 0.7,17.2 ± 1.3,20.8 ± 0.6,21.8 ± 0.3,2702 ± 61,175 ± 30,114 ± 14,23.8 ± 0.6,32.6 ± 0.4,38.8 ± 1.3,45.2 ± 1.9,45.8 ± 0.4,–
O=C([O-])CN(CCN(CC(=O)[O-])Cc1cc(CCC(=O)NCCCCCC(=O)NCCCC[C@H](NC(=O)N[C@@H](CCC(=O)O)C(=O)O)C(=O)O)ccc1[O-])Cc1cc(CCC(=O)O)ccc1[O-].[68Ga+3].[OH3+] [[^68Ga]Ga-PSMA 11],5.15 ± 0.6,8.0 ± 0.4,14.0 ± 1.9,20.3 ± 1.5,23.3 ± 0.8,27.4 ± 1.6,1746 ± 53,112 ± 57,58 ± 36,27.7 ± 0.7,35.3 ± 3.1,42.0 ± 1.2,46.3 ± 2.1,48.3 ± 1.2,–
CC(=O)N([O-])CCCCCNC(=O)CCC(=O)N([O-])CCCCCNC(=O)CCC(=O)N([O-])CCCCCNC(=O)CCC(=O)NCC1CCC(C(=O)NC(Cc2ccc3ccccc3c2)C(=O)NCCCCC(NC(=O)NC(CCC(=O)O)C(=O)O)C(=O)O)CC1.[89Zr+4] (stereo not shown) [[^89Zr]Zr-PSMA-DFO],4.97 ± 0.57,9.5 ± 0.6,15.3 ± 1.0,22.3 ± 1.0,24.4 ± 0.6,30.4 ± 1.3,1428 ± 42,–,–,29.1 ± 2.1,38.5 ± 2.3,46.5 ± 1.3,48.8 ± 1.0,49.4 ± 1.3,"Detected lesions whose validity was supported (histology, follow-up after radiation therapy, additional imaging) (PSMA-positive lesions): 14 out of 15; Level of radioactivity in the 15 lesions (SUVmax) versus the original PET scans (PSMA-positive lesions): significantly higher; Number of PSMA-positive lesions detected (PSMA-positive lesions; in 8 out of 14 patients): 15; Patients in whom PSMA-positive lesions were detected (PSMA-positive lesions; patients with BCR and initially negative PET scans using the usual tracers): 8 out of 14; Tumor visualization at later time points (LNCaP tumors; PET scans up to 48 h after injection): clear tumor visualization; Radioactive background radiation in the kidneys and bladder (LNCaP tumors; after 48 h, mice with LNCaP tumor xenografts): minimal; Ability to visualize tumors compared with [68Ga]Ga-PSMA-11 or [18F]F-JK-PSMA-7 (LNCaP tumors; early time points (1 h after injection)): similar; tumor/blood ratio (LNCaP tumor xenograft; 24 h after i.v. injection): 309 ± 89; tumor/muscle ratio (LNCaP tumor xenograft; 24 h after i.v. injection): 450 ± 38; Stability in human serum [5]: very high stability; Stability in phosphate-buffered saline (PBS) [5]: very high stability"
[^177Lu]Lu-PSMA 617,5.81 ± 0.71,4.1 ± 0.1,6.7 ± 0.1,12.8 ± 1.3,16.9 ± 0.2,22.9 ± 0.9,2021 ± 66,–,–,16.0 ± 0.2,19.7 ± 1.1,30.4 ± 1.0,35.5 ± 1.0,40.7 ± 2.4,–

# Reference: PMC10780766, “From Bench to Bedside: Patient-Oriented Radiopharmaceutical Development in Nuclear Medicine Based on the Example of [^89Zr]Zr-PSMA-DFO” (Molecules, 2023)
